Laboratory results reported in patent US20090012163A1, “Compositions containing Mg/Zn/F-CaP plus inhibitors of pro-inflammatory cytokines (alpha ketoalkanoic acid compound) for osteoporosis prevention, therapy and treatment of bone diseases” (priority 2007, published 2009).

System: TNFa release from stimulated peripheral blood monocytes (PBMCs)
Assay: Inhibition by ethyl pyruvate of TNFa release from LPS-stimulated PBMCs (ELISA)
Assay type: cell-based
Details: for TNFa release, LPS (5 ug/ml) / TNFa release, LPS (10 ug/ml): ELISA; for inhibition at 5000 µM / inhibition at 10000 µM / inhibition at 25000 µM / inhibition at 50000 µM: PBMC
Experimental: The Effect of Alpha-Ketoalkanoic Acid on TNFa Release from Stimulated Peripheral Blood Monocytes (PBMCS)
The cells were cultured in RPMI 1640 supplemented with 1% serum albumin for approximately 12 hours before treating with LPS (Lipopolysaccharide from E. Coli) at increasing concentrations to induce TNFa release. […] The effects of ethyl pyruvate (EP) on PBMC=s macrophages cultures with 5-10 micrograms of LPS was used to stimulate relase of TNFa.
Inhibition by Ethyl Pyruvate of TNFa Release (Measured via ELISA Assay)

CCOC(=O)C(C)=O [EP, ethyl pyruvate]
TNFa release, LPS (5 ug/ml) (EP 5 mM, LPS 5 ug/ml): 450 arbitrary fluorescence units | TNFa release, LPS (10 ug/ml) (EP 5 mM, LPS 10 ug/ml): 480 arbitrary fluorescence units | TNFa release, LPS (5 ug/ml) (EP 10 mM, LPS 5 ug/ml): 275 arbitrary fluorescence units | TNFa release, LPS (10 ug/ml) (EP 10 mM, LPS 10 ug/ml): 310 arbitrary fluorescence units | TNFa release, LPS (5 ug/ml) (EP 25 mM, LPS 5 ug/ml): 201 arbitrary fluorescence units | TNFa release, LPS (10 ug/ml) (EP 25 mM, LPS 10 ug/ml): 190 arbitrary fluorescence units | TNFa release, LPS (5 ug/ml) (EP 50 mM, LPS 5 ug/ml): 200 arbitrary fluorescence units | TNFa release, LPS (10 ug/ml) (EP 50 mM, LPS 10 ug/ml): 180 arbitrary fluorescence units | Inhibition of TNFa release (in words) (LPS & EP incubated in the cultures, different concentrations): effective inhibitor of TNFa release | inhibition at 5000 µM (EP 5 mM, LPS 5 ug/ml): 12% | inhibition at 5000 µM (EP 5 mM, LPS 10 ug/ml): 6% | inhibition at 10000 µM (EP 10 mM, LPS 5 ug/ml): 47% | inhibition at 10000 µM (EP 10 mM, LPS 10 ug/ml): 59% | inhibition at 25000 µM (EP 25 mM, LPS 5 ug/ml): 51% | inhibition at 25000 µM (EP 25 mM, LPS 10 ug/ml): 75% | inhibition at 50000 µM (EP 50 mM, LPS 5 ug/ml): 51% | inhibition at 50000 µM (EP 50 mM, LPS 10 ug/ml): 76%
